Reference: ChEMBL document CHEMBL1201862, “PubChem BioAssay data set” (2004)
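The compound was tested at five concentrations on cells cultured in 96-well plates, with a 48-hour exposure period. GI50 is the concentration that inhibits growth by half.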 Activity calls are given as the source filed them. Rule as the data show it: active = GI50 up to about 1.1 µM and inactive = higher.

Columns and labels:
Experiment in all cases: NCI-60 cell line screen, 48 h
IGROV-1 = test system: IGROV-1
RXF 393 = test system: RXF 393
NCI-H226 = test system: NCI-H226
MDA-MB-231 = test system: MDA-MB-231
M14 = test system: M14
SNB-75 = test system: SNB-75
786-0 = test system: 786-0
UACC-257 = test system: UACC-257
TK-10 = test system: TK-10
NCI/ADR-RES = test system: NCI/ADR-RES
HT-29 = test system: HT-29
CCRF-CEM = test system: CCRF-CEM
COLO 205 = test system: COLO 205
SK-MEL-2 = test system: SK-MEL-2
PC-3 = test system: PC-3
OVCAR-8 = test system: OVCAR-8
A498 = test system: A498
NCI-H460 = test system: NCI-H460
HOP-92 = test system: HOP-92

Structure (SMILES)	GI50 (IGROV-1)	GI50 (RXF 393)	GI50 (NCI-H226)	GI50 (MDA-MB-231)	GI50 (M14)	GI50 (SNB-75)	GI50 (786-0)	GI50 (UACC-257)	GI50 (TK-10)	GI50 (NCI/ADR-RES)	GI50 (HT-29)	GI50 (CCRF-CEM)	GI50 (COLO 205)	GI50 (SK-MEL-2)	GI50 (PC-3)	GI50 (OVCAR-8)	GI50 (A498)	GI50 (NCI-H460)	GI50 (HOP-92)
COc1ccc(/C=N/Nc2nc3ccccc3c(=O)n2-c2ccccc2)cc1	> 100 µM (inactive)	> 100 µM (inactive)	> 100 µM (inactive)	> 100 µM (inactive)	> 100 µM (inactive)	86.5 µM (inactive)	> 100 µM (inactive)	> 100 µM (inactive)	> 100 µM (inactive)	> 100 µM (inactive)	> 100 µM (inactive)	> 100 µM (inactive)	> 100 µM (inactive)	> 100 µM (inactive)	> 100 µM (inactive)	> 100 µM (inactive)	> 100 µM (inactive)	28.2 µM (inactive)	–
CC(=O)CC1(CBr)Nc2ccc([N+](=O)[O-])cc2NC1=O (stereo not given)	> 100 µM (inactive)	32.7 µM (inactive)	> 100 µM (inactive)	> 100 µM (inactive)	> 100 µM (inactive)	> 100 µM (inactive)	31.2 µM (inactive)	> 100 µM (inactive)	82.2 µM (inactive)	> 100 µM (inactive)	90.4 µM (inactive)	45.2 µM (inactive)	> 100 µM (inactive)	> 100 µM (inactive)	60.4 µM (inactive)	> 100 µM (inactive)	> 100 µM (inactive)	> 100 µM (inactive)	59.6 µM (inactive)
N#CI1OC(C(F)(F)F)(C(F)(F)F)c2ccccc21	16.4 µM (inactive)	16.8 µM (inactive)	17.8 µM (inactive)	24 µM (inactive)	19 µM (inactive)	13.9 µM (inactive)	14.2 µM (inactive)	22.2 µM (inactive)	19 µM (inactive)	15.8 µM (inactive)	16.4 µM (inactive)	18.7 µM (inactive)	12.9 µM (inactive)	16.1 µM (inactive)	15.8 µM (inactive)	16.3 µM (inactive)	37.4 µM (inactive)	24.8 µM (inactive)	16.3 µM (inactive)
O=CC1=C(C(=O)OC(c2ccccc2)c2ccccc2)N2C(=O)[C@@H](NC(=O)Cc3cccs3)[C@H]2SC1	> 100 µM (inactive)	> 100 µM (inactive)	> 100 µM (inactive)	> 100 µM (inactive)	> 100 µM (inactive)	> 100 µM (inactive)	> 100 µM (inactive)	> 100 µM (inactive)	> 100 µM (inactive)	> 100 µM (inactive)	–	57.3 µM (inactive)	> 100 µM (inactive)	> 100 µM (inactive)	> 100 µM (inactive)	> 100 µM (inactive)	> 100 µM (inactive)	> 100 µM (inactive)	> 100 µM (inactive)
CSc1nc(-c2cc3c(c(SC)n2)CCCCC3)cc2c1CCCCC2	22.8 µM (inactive)	> 100 µM (inactive)	> 100 µM (inactive)	> 100 µM (inactive)	> 100 µM (inactive)	34.3 µM (inactive)	> 100 µM (inactive)	> 100 µM (inactive)	> 100 µM (inactive)	> 100 µM (inactive)	> 100 µM (inactive)	> 100 µM (inactive)	> 100 µM (inactive)	> 100 µM (inactive)	> 100 µM (inactive)	> 100 µM (inactive)	> 100 µM (inactive)	> 100 µM (inactive)	–
c1ccc2c[n+](CCCC[n+]3ccc4ccccc4c3)ccc2c1	> 100 µM (inactive)	> 100 µM (inactive)	> 100 µM (inactive)	> 100 µM (inactive)	1.12 µM (active)	> 100 µM (inactive)	> 100 µM (inactive)	> 100 µM (inactive)	> 100 µM (inactive)	> 100 µM (inactive)	> 100 µM (inactive)	> 100 µM (inactive)	> 100 µM (inactive)	> 100 µM (inactive)	> 100 µM (inactive)	> 100 µM (inactive)	> 100 µM (inactive)	> 100 µM (inactive)	–
NC(=S)N/N=C1\NC(=O)/C(=C/c2ccc3c(c2)OCO3)S1	17.1 µM (inactive)	21.1 µM (inactive)	23.5 µM (inactive)	25.8 µM (inactive)	24.5 µM (inactive)	14.3 µM (inactive)	33.9 µM (inactive)	31.6 µM (inactive)	40.8 µM (inactive)	27.8 µM (inactive)	28.6 µM (inactive)	–	26.3 µM (inactive)	27.2 µM (inactive)	–	24.8 µM (inactive)	14.3 µM (inactive)	30.8 µM (inactive)	21.5 µM (inactive)
O=C1CSC(c2c[nH]c3ccccc23)N1c1ccccc1[N+](=O)[O-] (stereo not given)	> 100 µM (inactive)	> 10 µM (inactive)	–	> 100 µM (inactive)	> 100 µM (inactive)	–	> 100 µM (inactive)	> 100 µM (inactive)	> 100 µM (inactive)	–	> 100 µM (inactive)	> 100 µM (inactive)	> 100 µM (inactive)	–	> 100 µM (inactive)	> 100 µM (inactive)	–	> 100 µM (inactive)	> 100 µM (inactive)
CCOc1ccccc1NC(=O)C1=C(C)NC(C)=C(C(=O)Nc2ccccc2OCC)C1c1ccc2c(c1)OCO2	25 µM (inactive)	16.8 µM (inactive)	22 µM (inactive)	–	18.8 µM (inactive)	3.53 µM (inactive)	41.3 µM (inactive)	22 µM (inactive)	76.6 µM (inactive)	–	37.2 µM (inactive)	24.2 µM (inactive)	18.2 µM (inactive)	18.7 µM (inactive)	–	47.3 µM (inactive)	34.9 µM (inactive)	29.1 µM (inactive)	7.36 µM (inactive)
COc1ccc(CN2C(=O)C(Cc3cc(OC)c(OC)c(C)c3OC)NC(=O)/C2=C/c2cc(OC)c(OC)c(C)c2OC)cc1 (stereo not given)	53.2 µM (inactive)	25.8 µM (inactive)	18.7 µM (inactive)	–	32.1 µM (inactive)	33.5 µM (inactive)	48.4 µM (inactive)	37.5 µM (inactive)	33.5 µM (inactive)	–	24.2 µM (inactive)	27 µM (inactive)	22.8 µM (inactive)	19.3 µM (inactive)	–	32.1 µM (inactive)	49.4 µM (inactive)	9.98 µM (inactive)	29 µM (inactive)
O=C1c2cccc3cccc(c23)C(=O)N1CCN(CCO)CCO	32.7 µM (inactive)	20.9 µM (inactive)	16 µM (inactive)	–	20 µM (inactive)	30.1 µM (inactive)	40.6 µM (inactive)	22.5 µM (inactive)	17.5 µM (inactive)	–	27.9 µM (inactive)	30.3 µM (inactive)	15.6 µM (inactive)	12.2 µM (inactive)	–	16.3 µM (inactive)	17.3 µM (inactive)	23.4 µM (inactive)	26.7 µM (inactive)
CCOC(=O)C1=C(C)NC(=S)NC1c1ccccc1 (stereo not given)	> 100 µM (inactive)	> 66.2 µM (inactive)	> 100 µM (inactive)	–	> 100 µM (inactive)	> 100 µM (inactive)	> 100 µM (inactive)	> 100 µM (inactive)	> 100 µM (inactive)	–	> 96.4 µM (inactive)	> 45.1 µM (inactive)	> 45 µM (inactive)	> 100 µM (inactive)	–	> 100 µM (inactive)	> 100 µM (inactive)	> 59.3 µM (inactive)	> 100 µM (inactive)
